Experimental findings from ChEMBL document CHEMBL1201862, “PubChem BioAssay data set” (2004) are described below.

Some test systems named below: A498; HCT-15; NCI-H23; U-251; OVCAR-5; UACC-62; OVCAR-3; HCT-116; SK-MEL-28; SW-620; NCI-H226; IGROV-1; A549; TK-10; SF-295; SNB-19.
Assay in all cases: growth of human tumour cells (NCI), 48 h

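Dose response: 5 concentrations. Exposure: 48 h. Format: 96-well plates. Endpoint: linear interpolation; highest concentration if not reached. GI50 = concentration required for 50% inhibition of growth.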 Activity calls are given as the source filed them. No stated cut-off is given here; in the data, active = GI50 up to about 1.1 µM and inactive = higher.

As to `N#CCCN(CCC#N)c1ccc(/C=C(/NC(=O)c2cc([N+](=O)[O-])ccc2Cl)C(=O)N=[N+]=[N-])cc1`, the GI50 with A498 is > 100 µM (inactive); in the experiment with HCT-15, over 100 µM; in the experiment on NCI-H23, > 100 µM (inactive); in the experiment on U-251, > 100 µM (inactive); in the experiment with OVCAR-5 it was > 100 µM (inactive); in the experiment with UACC-62 it was > 100 µM (inactive). Also, the GI50 with OVCAR-3, with HCT-116, in the experiment on SK-MEL-28, in the experiment on SW-620, with NCI-H226 and with IGROV-1 was > 100 µM (inactive) in each case. Besides, the GI50 in the experiment with A549, in the experiment on TK-10, in the experiment with SF-295 and in the experiment with SNB-19 was > 100 µM (inactive) throughout.
For `CCCCCCCCCC1CC(=O)OC23CCCC(=O)C12O3` (configuration not stated), the GI50 in the experiment with A498 was 71.9 µM (inactive); in the experiment with HCT-15 it was 84.9 µM; with NCI-H23 it was > 100 µM (inactive); with U-251 it was 97.1 µM (inactive); in the experiment with OVCAR-5 it was > 100 µM (inactive); in the experiment on UACC-62, 80 µM (inactive). The GI50 with OVCAR-3, in the experiment on HCT-116, in the experiment with SK-MEL-28, in the experiment on SW-620, in the experiment on NCI-H226 and in the experiment with IGROV-1 was > 100 µM (inactive) each time. Also, the GI50 with A549, with TK-10, in the experiment on SF-295 and with SNB-19 was > 100 µM (inactive) in each case.
On to `COc1cc(/C=C(\C#N)C(=O)c2ccccc2)ccc1O`, for which the GI50 was > 100 µM (inactive) with A498; over 100 µM with HCT-15; > 100 µM (inactive) in the experiment with NCI-H23; > 100 µM (inactive) in the experiment on U-251; > 100 µM (inactive) with OVCAR-5; > 100 µM (inactive) in the experiment on UACC-62. In addition, the GI50 with OVCAR-3 was 34.4 µM (inactive); with HCT-116, > 100 µM (inactive); with SK-MEL-28 it was > 100 µM (inactive); in the experiment on SW-620 it was > 100 µM (inactive); with NCI-H226, > 100 µM (inactive); with IGROV-1, > 100 µM (inactive). Besides, the GI50 with A549, in the experiment with TK-10, in the experiment on SF-295 and with SNB-19 was > 100 µM (inactive) in each case.
With `O=C1C2C(C(=O)N1c1ccccc1)C1(Br)c3ccccc3C2(Br)C2C(=O)N(c3ccccc3)C(=O)C21` (configuration not stated), the GI50 in the experiment on A498 was 21.9 µM (inactive); in the experiment with HCT-15, 23.8 µM; in the experiment with NCI-H23, 17.6 µM (inactive); in the experiment with U-251, > 31.6 µM (inactive); in the experiment with OVCAR-5 it was > 31.6 µM (inactive); in the experiment with UACC-62 it was 23.7 µM (inactive). Besides, the GI50 in the experiment with OVCAR-3 is > 31.6 µM (inactive); with HCT-116 it was 28.3 µM (inactive); in the experiment on SK-MEL-28, > 31.6 µM (inactive); with SW-620 it was > 31.6 µM (inactive); with NCI-H226, > 31.6 µM (inactive); in the experiment on IGROV-1, > 31.6 µM (inactive). In addition, the GI50 in the experiment on A549 is 28.1 µM (inactive); in the experiment with TK-10 it was > 31.6 µM (inactive); with SF-295, > 100 µM (inactive); in the experiment with SNB-19, > 31.6 µM (inactive).
With `O=C(Nc1cccc([N+](=O)[O-])c1)/C(=N\NC(=O)c1ccncc1)c1nc2ccc([N+](=O)[O-])cc2nc1O`, the GI50 in the experiment on A498 is > 100 µM (inactive); with HCT-15, 35 µM; in the experiment with NCI-H23, 68.1 µM (inactive); in the experiment with U-251 it was 71.3 µM (inactive); in the experiment on OVCAR-5, 77.3 µM (inactive); in the experiment with UACC-62, 58.7 µM (inactive). The GI50 is > 100 µM (inactive) in the experiment on OVCAR-3; 84.3 µM (inactive) in the experiment on HCT-116; 29.2 µM (inactive) in the experiment on SK-MEL-28; 77.3 µM (inactive) in the experiment on SW-620; 42.4 µM (inactive) with NCI-H226; > 100 µM (inactive) in the experiment with IGROV-1. For the same molecule, the GI50 in the experiment on A549 is 39.5 µM (inactive); in the experiment on SF-295 it was 33.8 µM (inactive); in the experiment with SNB-19, > 100 µM (inactive).
Take `N#CC(C(=O)/C(=N/NC(=O)c1ccccc1O)C(C#N)c1ccc(Cl)cc1)c1ccc(Cl)cc1` (configuration not stated): the GI50 in the experiment with A498 was 11.9 µM (inactive); with HCT-15, 15.3 µM; in the experiment with NCI-H23 it was 11.5 µM (inactive); in the experiment with U-251 it was 10.6 µM (inactive); in the experiment on OVCAR-5, 20 µM (inactive); in the experiment on OVCAR-3 it was 20 µM (inactive). Also, the GI50 with HCT-116 was 17.4 µM (inactive); with SK-MEL-28, 14.4 µM (inactive); in the experiment with SW-620 it was 15.2 µM (inactive); in the experiment on NCI-H226 it was 16.9 µM (inactive); with A549 it was 24.6 µM (inactive); in the experiment on TK-10, 17.5 µM (inactive). The GI50 with SF-295 is 16.4 µM (inactive); with SNB-19, 15 µM (inactive).
With `COC(=O)C1CC/C(=N/C2c3ccccc3-c3ccccc32)N1` (configuration not stated), the GI50 in the experiment with A498 was > 100 µM (inactive); with HCT-15 it was over 100 µM; in the experiment with NCI-H23 it was > 100 µM (inactive); in the experiment with U-251, > 100 µM (inactive); in the experiment with OVCAR-5, > 100 µM (inactive); in the experiment on UACC-62 it was 63 µM (inactive). Also, the GI50 in the experiment on OVCAR-3 is 74.8 µM (inactive); with HCT-116 it was > 100 µM (inactive); in the experiment with SK-MEL-28, > 100 µM (inactive); in the experiment with SW-620, > 100 µM (inactive); with NCI-H226, > 100 µM (inactive); with IGROV-1, > 100 µM (inactive). Further, the GI50 in the experiment with A549, in the experiment on TK-10, with SF-295 and with SNB-19 was > 100 µM (inactive) each time.
`Cc1[nH]c(=O)nc(N/N=C/c2ccc(O)cc2)c1C(=O)Nc1ccc(Cl)cc1`: the GI50 in the experiment with A498 is > 100 µM (inactive); in the experiment with HCT-15, over 100 µM; in the experiment with U-251 it was > 100 µM (inactive); in the experiment on UACC-62, > 100 µM (inactive); in the experiment on OVCAR-3, > 100 µM (inactive); with HCT-116 it was > 100 µM (inactive). Moreover, the GI50 was > 100 µM (inactive) with SK-MEL-28; > 100 µM (inactive) in the experiment with SW-620; 65.2 µM (inactive) in the experiment on NCI-H226; > 100 µM (inactive) in the experiment on IGROV-1; > 100 µM (inactive) in the experiment with A549; > 100 µM (inactive) in the experiment with TK-10. In addition, the GI50 in the experiment with SNB-19 is > 100 µM (inactive).
`CC(C)N(C(C)C)P(OCCC#N)OC1CC(n2cnc3c(=O)[nH]cnc32)OC1COC(=O)NCCCCCCNC(=O)OC(C)(C)c1ccc(-c2ccccc2)cc1` (configuration not stated): the GI50 in the experiment on A498 was > 100 µM (inactive); in the experiment with HCT-15, 22.6 µM; in the experiment on NCI-H23, 26.1 µM (inactive); in the experiment on U-251, 21.7 µM (inactive); in the experiment with OVCAR-5, > 100 µM (inactive); with UACC-62, 18.4 µM (inactive). The GI50 is 39.1 µM (inactive) in the experiment on HCT-116; 34.3 µM (inactive) with SK-MEL-28; 34.1 µM (inactive) with SW-620; 23.9 µM (inactive) in the experiment on NCI-H226; 17 µM (inactive) with IGROV-1; 39.4 µM (inactive) in the experiment with A549. Moreover, the figures for the GI50 in the experiment with TK-10, in the experiment on SF-295 and with SNB-19 were 24.2 µM (inactive), 52.1 µM (inactive) and 21.7 µM (inactive), respectively.
Regarding `CNC(N)NC`, the GI50 in the experiment on A498 was > 100 µM (inactive); with HCT-15 it was over 100 µM; in the experiment on NCI-H23, > 100 µM (inactive); with U-251, > 100 µM (inactive); in the experiment on OVCAR-5, > 100 µM (inactive); with UACC-62, > 100 µM (inactive). Also, the GI50 in the experiment with OVCAR-3, in the experiment with HCT-116, with SK-MEL-28, with SW-620, in the experiment with NCI-H226 and in the experiment with IGROV-1 was > 100 µM (inactive) throughout. The GI50 in the experiment with A549, in the experiment with TK-10, in the experiment on SF-295 and with SNB-19 was > 100 µM (inactive) throughout.
As to `COc1ccc2c(c1)CCC(OS(=O)(=O)CC13CCC(CC1=O)C3(C)C)C2=O` (configuration not stated), the GI50 in the experiment on A498 is 14.8 µM (inactive); with HCT-15 it was 26.7 µM; in the experiment with NCI-H23, 17.3 µM (inactive); with U-251, 21.9 µM (inactive); in the experiment with OVCAR-5 it was 37.2 µM (inactive); in the experiment on UACC-62, 16.9 µM (inactive). Moreover, the GI50 in the experiment on OVCAR-3 was 25.7 µM (inactive); with HCT-116, 24.3 µM (inactive); in the experiment on SK-MEL-28 it was 36.3 µM (inactive); in the experiment with SW-620 it was 26.4 µM (inactive); in the experiment on NCI-H226 it was 29 µM (inactive); with A549, 26.4 µM (inactive). In addition, the values for the GI50 in the experiment with TK-10 and in the experiment with SNB-19 were 39.6 µM (inactive) and 41.9 µM (inactive), respectively.
In the case of `CCN(CC)CCNc1ccc2nnn3c4ccc(C)cc4c(=O)c1c23`, the GI50 is 15.5 µM (inactive) in the experiment on A498; 9.62 µM in the experiment with HCT-15; 11.7 µM (inactive) in the experiment on NCI-H23; 11.5 µM (inactive) with U-251; 6.71 µM (inactive) with OVCAR-5; 14 µM (inactive) in the experiment on UACC-62. In addition, the GI50 with OVCAR-3 was 13.2 µM (inactive); in the experiment with HCT-116, 3.78 µM (inactive); with SK-MEL-28, 15.5 µM (inactive); in the experiment with SW-620, 4.63 µM (inactive); with NCI-H226 it was 10.8 µM (inactive); in the experiment on IGROV-1, 10.4 µM (inactive). The GI50 in the experiment on A549 was 5.37 µM (inactive); in the experiment on TK-10 it was 12.2 µM (inactive); with SF-295, 5.02 µM (inactive); with SNB-19, 12.7 µM (inactive).
As to `NC(=O)c1cccc([N+](=O)[O-])c1`, the GI50 in the experiment on A498 was > 100 µM (inactive); in the experiment on HCT-15, over 100 µM; in the experiment on NCI-H23, > 100 µM (inactive); in the experiment on U-251, > 100 µM (inactive); with UACC-62, > 100 µM (inactive); in the experiment with OVCAR-3 it was > 100 µM (inactive). Also, the GI50 with SK-MEL-28, in the experiment with SW-620, in the experiment with NCI-H226, in the experiment on IGROV-1, in the experiment with A549 and in the experiment on TK-10 was > 100 µM (inactive) throughout. Besides, the GI50 in the experiment on SF-295 and in the experiment with SNB-19 was > 100 µM (inactive) in each case.
